Assays:
Assay type in all cases: cell-based, human
[1] = test system: A2780 cells; assay: Cell proliferation assay (MTT/MTS), A2780; conditions: 72-120 h, MTT or MTS, mean±SEM
Source text: (§1) Hodgkin's lymphoma cell line (L-540) and human androgen-resistant prostate cancer cell line (PC3) were obtained from the German Collection of Microorganisms and Cell Cultures (Braunschweig, Germany). Human breast adenocarcinoma cell line MCF-7 cell line (HTB-22™) was obtained from the American Type Culture Collection (ATCC, Rockville, Md., USA). Human ovarian epithelial carcinoma-derived cancer cells A2780 and its cisplatin-resistant clone A2780cis were from Sigma Inc (St. Louis, Mo., USA), and the isogenic cisplatin-resistant 2780CP-16 cells were cultured as previously described (Siddik, Z. H.; Mims, B.; Lozano, G.; Thai, G. Independent pathways of p53 induction by cisplatin and X-rays in a cisplatin-resistant ovarian tumor cell line. Cancer Res. 1998, 58, 698-703, incorporated herein by reference in its entirety). A panel of non-small cell lung cancer (NSCLC) cell lines (H460, A549, H226, H838, H157, H1975, H2122, SKLU1 and H1299) was obtained from Dr. Garth Powis at MD Anderson Cancer Center. […]
(§2) PC3 and MCF-7 cells (2.5×10^3), A2780, A2780cis (4.0×10^3), A2780CP-16 and lung cancer cells (H460, A549, H226, H838, H157, H1975, H2122, SKLU1 and H1299) were seeded in 96-well flat-bottomed microplates (100 μL) and incubated for 24 h (to allow cell adhesion) before drug testing. […] After treatment, cell proliferation was evaluated by the MTS assay (Promega). […]

[2] = test system: WT-p53 A2780 ovarian cancer cells (CRISPR Control); assay: MTT assay, A2780 transfected with CRISPR control plasmid; conditions: A2780 clone with control plasmid
Procedure: (§3) PC3 and MCF-7 cells (2.5×10^3), A2780, A2780cis (4.0×10^3), A2780CP-16 and lung cancer cells (H460, A549, H226, H838, H157, H1975, H2122, SKLU1 and H1299) were seeded in 96-well flat-bottomed microplates (100 μL) and incubated for 24 h (to allow cell adhesion) before drug testing. The medium was then removed and replaced with fresh medium which separately contained cisplatin and the gold(III) compounds 1 to 9 at increasing concentrations (from 0.01 to 100 μM) at 37° C. for 72-120 h. Each treatment was performed in triplicate. Cell proliferation was assayed using the MTT assay or the MTS assay. […] After treatment, cell proliferation was evaluated by the MTS assay (Promega). […] The dependency of the anticancer activity of the gold(III) compounds on the type of p53 or the absence of p53 was assessed in A2780 cells following p53 knockdown by CRISPR (Cong, L.; Ran, F. A.; Cox, D.; Lin, S.; Barretto, R.; Habib, N.; Hsu, P. D.; Wu, X.; Jiang, W.; Marraffini, L. A.; Zhang, F. Multiplex genome engineering using CRISPR/Cas systems Science. 2013, 15; 339 (6121), 819-23, incorporate herein by reference in its entirety). […]

[3] = test system: PC3 cells; assay: Cell proliferation assay (MTT/MTS), PC3; conditions: 72-120 h, MTT or MTS, mean±SEM
Source text: as §1, §2

[4] = test system: cisplatin-resistant A2780cis cells; assay: Cell proliferation assay (MTT/MTS), A2780cis; conditions: for IC50: cisplatin-resistant A2780cis cells, 72-120 h, MTT or MTS, mean±SEM
Source text: Hodgkin's lymphoma cell line (L-540) and human androgen-resistant prostate cancer cell line (PC3) were obtained from the German Collection of Microorganisms and Cell Cultures (Braunschweig, Germany). Human breast adenocarcinoma cell line MCF-7 cell line (HTB-22™) was obtained from the American Type Culture Collection (ATCC, Rockville, Md., USA). Human ovarian epithelial carcinoma-derived cancer cells A2780 and its cisplatin-resistant clone A2780cis were from Sigma Inc (St. Louis, Mo., USA), and the isogenic cisplatin-resistant 2780CP-16 cells were cultured as previously described (Siddik, Z. H.; Mims, B.; Lozano, G.; Thai, G. Independent pathways of p53 induction by cisplatin and X-rays in a cisplatin-resistant ovarian tumor cell line. Cancer Res. 1998, 58, 698-703, incorporated herein by reference in its entirety). A panel of non-small cell lung cancer (NSCLC) cell lines (H460, A549, H226, H838, H157, H1975, H2122, SKLU1 and H1299) was obtained from Dr. Garth Powis at MD Anderson Cancer Center. Cell lines were further authenticated for their origin by BMR Genomics according to Cell ID System (Promega) protocol and using Genemapper ID Ver 3.2.1 to identify DNA short tandem repeat profiles. The […] cisplatin-resistant subclone (A2780cis) was maintained by weekly treatment with 1 μM cisplatin (Casagrande, N.; Celegato, M.; Borghese, C.; Mongiat, M.; Colombatti, A.; Aldinucci, D. Preclinical activity of the liposomal cisplatin Lipoplatin in ovarian cancer. Clin. Cancer Res. 2014, 20(21), 5496-5506, incorporated herein by reference in its entirety).
Cells were cultured in 5% CO2 in RPMI (for L-540, A2780, A2780cis, 2780CP-16, PC3 and the panel of lung cancer cells) or DMEM (for MCF-7 cells) media supplemented with 10% heat-inactivated fetal calf serum (FCS; Sigma-Aldrich-Italy), 0.2 mg/ml penicillin/streptomycin and 0.1% (w/v) L-gluamine (Biocrom) at 37° C. in a 5% CO2 fully humidified atmosphere.
(§4) Gold(III) compounds were dissolved in DMSO (final concentration of the gold(III) complexes was 10 mM) and stored at −80° C. in volumes of 500 μL or aliquoted into volumes of 10 μL and stored at −20° C. (used once without refreezing). They were then diluted in RPMI medium immediately before use. The culture medium with the same amount of drug-free DMSO was used as negative control.
as §2

[5] = test system: A2780 ovarian cancer cells (CRISPR p53 KO); assay: MTT assay, A2780 with p53 knocked out by CRISPR/Cas9; conditions: A2780 clone with p53 knocked out
Procedure: as §3

[6] = test system: L-540, PC3, MCF-7, A2780 and A2780cis cell lines; assay: In vitro cytotoxicity across the cell line panel, compared with cisplatin; conditions: all cell lines tested
Procedure: as §3

[7] = test system: NSCLC cell lines (H460, A549, H226, H838, H157, H1975, H2122, SKLU1 and H1299); assay: Cell proliferation assay, NSCLC panel grouped by p53 status; conditions: range over the NSCLC panel (WT-, Mut- and Null-p53)
Source text: as §1, §2

[8] = test system: L-540 cells; assay: Cell proliferation assay (MTS), L-540; conditions: mean±SEM
Source text: as §1, §2

[9] = test system: MCF-7 cells; assay: Cell proliferation assay (MTT/MTS), MCF-7; conditions: 72-120 h, MTT or MTS, mean±SEM
Source text: as §1, §2

[10] = test system: A549 cells; assay: Dose-response curves in A549 cells; conditions: 5 days after contacting
Procedure: as §4
as §3, with “h.” for “h. Each treatment was performed in triplicate. Cell proliferation was assayed using the MTT assay or the MTS assay.”

[11] = test system: cisplatin-resistant 2780CP cells; assay: Cell proliferation assay, 2780CP-16; conditions: 2780CP versus A2780
Source text: Hodgkin's lymphoma cell line (L-540) and human androgen-resistant prostate cancer cell line (PC3) were obtained from the German Collection of Microorganisms and Cell Cultures (Braunschweig, Germany). Human breast adenocarcinoma cell line MCF-7 cell line (HTB-22™) was obtained from the American Type Culture Collection (ATCC, Rockville, Md., USA). […]
as §3, with “testing.” for “testing. The medium was then removed and replaced with fresh medium which separately contained cisplatin and the gold(III) compounds 1 to 9 at increasing concentrations (from 0.01 to 100 μM) at 37° C. for 72-120 h. Each treatment was performed in triplicate. Cell proliferation was assayed using the MTT assay or the MTS assay.”

| fold higher IC50 in A2780cis than in A2780 ([4]; A2780cis versus A2780) | Compound | IC50 [1] [nM] | IC50 [2] [nM] | IC50 [3] [nM] | IC50 [4] [nM] | IC50 [5] [nM] | activity compared with cisplatin [6] | IC50 [7] [nM] | IC50 [8] [nM] | IC50 [9] [nM] | potency from dose-response curves in A549 cells [10] | Fold resistance A2780cis/A2780 ratio ([4]; ratio of IC50 in A2780cis to IC50 in A2780) | fold cisplatin resistance of 2780CP cells [11] [fold] |
| --- | --- | --- | --- | --- | --- | --- | --- | --- | --- | --- | --- | --- | --- |
| – | CN(C)C(=S)[S][Au+2].Cc1ccc(-c2ccc(C)cn2)nc1.[Cl-].[Cl-] [Compound 4] | 280 ± 30 | 87 ± 3 | 590 ± 50 | 170 ± 10 | 83 ± 3 | generally more effective than cisplatin | 120 to 310 | 2700 ± 220 | 280 ± 20 | greater potencies than compounds 3, 6, and 9 | – | – |
| about 7 fold | cis-[Pt(NH3)2Cl2] [Cisplatin, reference compound] | 1500 ± 100 | – | 3300 ± 300 | 10400 ± 900 | – | – | – | 2500 ± 100 | 22200 ± 200 | – | 6.93 | 20 |
